Measured values reported in ChEMBL document CHEMBL2417397, “Synthesis and biological properties of new N-Mannich bases derived from 3-methyl-3-phenyl- and 3,3-dimethyl-succinimides. Part V” (Eur J Med Chem, 2013).
Active and inactive are the calls of the source. The rule behind the calls is not given here.

Key:
Mus musculus [1] = assay: Anticonvulsant activity in CF-1 albino mouse assessed as protection against 6 Hz psychomotor seizure at 100 mg/kg, ip after 1 hr; format: functional; conditions: route intraperitoneal
Vibrio harveyi [2] = assay: Antimutagenic activity in Vibrio harveyi BB7X assessed as inhibition of 4-nitroquinoline-N-oxide-induced mutation; format: functional
Rattus norvegicus [3] = assay: Anticonvulsant activity in Sprague-Dawley albino rat assessed as protection against maximal electroshock-induced seizures at 30 mg/kg, po after 2 hrs; format: functional
Rattus norvegicus [4] = organism: Rattus norvegicus; assay: Protective index, ratio of TD50 for Sprague-Dawley albino rat by rotarod test to ED50 for Sprague-Dawley albino rat; format: functional
Mus musculus [5] = assay: Anticonvulsant activity in ip dosed CF-1 albino mouse assessed as protection against maximal electroshock-induced seizures after 4 hrs; format: functional
Rattus norvegicus [6] = assay: Anticonvulsant activity in Sprague-Dawley albino rat assessed as protection against maximal electroshock-induced seizures at 30 mg/kg, po after 0.5 hrs; format: functional
Vibrio harveyi [7] = assay: Antimutagenic activity in Vibrio harveyi BB7XM assessed as inhibition of 4-nitroquinoline-N-oxide-induced mutation; format: functional
Mus musculus [8] = assay: Anticonvulsant activity in CF-1 albino mouse assessed as protection against maximal electroshock-induced seizures at 300 mg/kg, ip after 0.5 hrs; format: functional, organism-based; design: dose 300 mg/kg
Vibrio harveyi [9] = assay: Antimutagenic activity in Vibrio harveyi BB7 assessed as inhibition of 4-nitroquinoline-N-oxide-induced mutation; format: functional
Rattus norvegicus [10] = assay: Anticonvulsant activity in Sprague-Dawley albino rat assessed as time of peak effect for protection against maximal electroshock-induced seizures at 30 mg/kg, po; format: functional
Rattus norvegicus [11] = assay: Anticonvulsant activity in Sprague-Dawley albino rat assessed as protection against maximal electroshock-induced seizures at 30 mg/kg, po after 0.25 hrs; format: functional
Mus musculus [12] = assay: Anticonvulsant activity in CF-1 albino mouse assessed as protection against 6 Hz psychomotor seizure at 100 mg/kg, ip after 0.25 to 4 hrs; format: functional; conditions: route intraperitoneal
[13] = target: Sodium channel protein type 2 subunit alpha (Homo sapiens) (UniProt Q99250); assay: Inhibition of NaV1.2 channel (unknown origin) at 10 uM by electrophysiology
Sequence of Sodium channel protein type 2 subunit alpha (Homo sapiens) (Q99250 whole entry, looked up): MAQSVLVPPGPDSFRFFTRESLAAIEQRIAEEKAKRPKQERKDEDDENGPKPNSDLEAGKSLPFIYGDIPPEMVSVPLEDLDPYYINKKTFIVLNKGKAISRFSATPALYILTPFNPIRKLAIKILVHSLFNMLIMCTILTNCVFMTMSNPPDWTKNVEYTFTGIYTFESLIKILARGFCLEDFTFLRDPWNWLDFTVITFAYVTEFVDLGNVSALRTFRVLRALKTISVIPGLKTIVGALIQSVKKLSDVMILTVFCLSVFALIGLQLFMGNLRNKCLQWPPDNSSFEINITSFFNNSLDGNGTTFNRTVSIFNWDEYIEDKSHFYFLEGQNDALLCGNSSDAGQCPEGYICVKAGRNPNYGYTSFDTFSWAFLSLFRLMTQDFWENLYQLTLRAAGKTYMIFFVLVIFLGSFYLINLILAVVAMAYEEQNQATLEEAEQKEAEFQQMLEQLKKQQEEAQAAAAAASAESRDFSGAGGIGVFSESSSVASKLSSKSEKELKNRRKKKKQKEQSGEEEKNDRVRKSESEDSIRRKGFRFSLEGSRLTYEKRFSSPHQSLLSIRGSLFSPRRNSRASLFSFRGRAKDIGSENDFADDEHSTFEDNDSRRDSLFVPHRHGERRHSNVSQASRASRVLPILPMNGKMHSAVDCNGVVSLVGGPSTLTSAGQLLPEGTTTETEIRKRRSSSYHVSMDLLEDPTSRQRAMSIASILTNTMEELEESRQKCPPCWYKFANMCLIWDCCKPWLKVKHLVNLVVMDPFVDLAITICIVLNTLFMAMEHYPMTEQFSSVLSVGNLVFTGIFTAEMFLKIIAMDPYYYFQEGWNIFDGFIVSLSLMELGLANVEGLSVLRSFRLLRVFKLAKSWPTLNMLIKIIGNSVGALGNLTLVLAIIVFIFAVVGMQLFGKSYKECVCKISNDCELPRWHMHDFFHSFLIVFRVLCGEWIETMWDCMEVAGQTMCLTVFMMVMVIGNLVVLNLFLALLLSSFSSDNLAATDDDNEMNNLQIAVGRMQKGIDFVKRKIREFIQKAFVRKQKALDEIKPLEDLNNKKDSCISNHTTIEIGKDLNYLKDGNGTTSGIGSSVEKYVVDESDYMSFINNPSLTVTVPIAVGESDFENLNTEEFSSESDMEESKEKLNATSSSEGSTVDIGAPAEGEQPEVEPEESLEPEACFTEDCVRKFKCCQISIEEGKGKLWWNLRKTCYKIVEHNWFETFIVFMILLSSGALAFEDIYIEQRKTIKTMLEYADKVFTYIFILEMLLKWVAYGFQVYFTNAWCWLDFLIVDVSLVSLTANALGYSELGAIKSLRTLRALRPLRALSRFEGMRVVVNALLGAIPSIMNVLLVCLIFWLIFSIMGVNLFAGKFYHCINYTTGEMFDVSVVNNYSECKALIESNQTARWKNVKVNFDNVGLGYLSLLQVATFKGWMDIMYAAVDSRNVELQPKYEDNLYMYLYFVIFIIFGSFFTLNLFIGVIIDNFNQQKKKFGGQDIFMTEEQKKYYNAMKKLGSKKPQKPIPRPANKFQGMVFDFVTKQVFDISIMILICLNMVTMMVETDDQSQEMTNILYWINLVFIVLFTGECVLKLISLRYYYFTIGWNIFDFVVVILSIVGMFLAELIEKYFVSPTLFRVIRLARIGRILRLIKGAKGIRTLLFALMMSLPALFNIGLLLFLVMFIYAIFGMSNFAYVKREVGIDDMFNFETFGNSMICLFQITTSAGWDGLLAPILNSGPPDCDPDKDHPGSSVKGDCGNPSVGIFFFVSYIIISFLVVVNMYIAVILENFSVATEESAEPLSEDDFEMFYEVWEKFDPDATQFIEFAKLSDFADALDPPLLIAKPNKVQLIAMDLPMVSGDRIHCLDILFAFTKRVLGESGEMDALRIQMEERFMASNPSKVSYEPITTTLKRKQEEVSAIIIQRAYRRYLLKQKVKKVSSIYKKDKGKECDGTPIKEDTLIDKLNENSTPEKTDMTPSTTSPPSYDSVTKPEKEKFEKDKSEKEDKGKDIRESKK

Vibrio harveyi [14] = assay: Antimutagenic activity in Vibrio harveyi BB7M assessed as inhibition of 4-nitroquinoline-N-oxide-induced mutation; format: functional
Mus musculus [15] = assay: Neurotoxicity in CF-1 albino mouse at 300 mg/kg, ip after 4 hrs by rotarod test; format: toxicity, organism-based; design: dose 300 mg/kg, route intraperitoneal; conditions: in vivo
Rattus norvegicus [16] = assay: Neurotoxicity in Sprague-Dawley albino rat assessed as motor impairment at 30 mg/kg, po; format: toxicity, organism-based; design: dose 30 mg/kg, route oral; conditions: in vivo
Vibrio harveyi [17] = assay: Induction of mutagenecity in Vibrio harveyi BB7X; format: organism-based; conditions: in vivo
Vibrio harveyi [18] = assay: Induction of mutagenecity in Vibrio harveyi BB7M; format: organism-based; conditions: in vivo
Mus musculus [19] = assay: Anticonvulsant activity in CF-1 albino mouse assessed as protection against 6 Hz psychomotor seizure at 100 mg/kg, ip after 2 hrs; format: functional
Mus musculus [20] = assay: Anticonvulsant activity in CF-1 albino mouse assessed as protection against 6 Hz psychomotor seizure at 100 mg/kg, ip after 4 hrs; format: functional
Mus musculus [21] = assay: Anticonvulsant activity in CF-1 albino mouse assessed as time of peak effect for protection against maximal electroshock-induced seizures at 30 to 300 mg/kg, ip; format: functional; conditions: dose mg/kg 30-300; route intraperitoneal
[22] = target: Sodium channel protein type 2 subunit alpha (Homo sapiens) (UniProt Q99250); assay: Inhibition of NaV1.2 channel (unknown origin) at 0.1 uM by electrophysiology
[23] = Neurotoxicity in ip dosed CF-1 albino mouse at 30 to 300 mg/kg, ip after 0.5 to 4 hrs; format: toxicity, organism-based; design: route intraperitoneal; conditions: CF-1, mouse, in vivo
Vibrio harveyi [24] = assay: Induction of mutagenecity in Vibrio harveyi BB7; format: organism-based; conditions: in vivo
Mus musculus [25] = assay: Anticonvulsant activity in CF-1 albino mouse assessed as protection against 6 Hz psychomotor seizure at 100 mg/kg, ip after 0.5 hrs; format: functional
Mus musculus [26] = organism: Mus musculus; assay: Protective index, ratio of TD50 for CF-1 albino mouse by rotarod test to ED50 for CF-1 albino mouse; format: functional
Mus musculus [27] = assay: Anticonvulsant activity in CF-1 albino mouse assessed as protection against 6 Hz psychomotor seizure at 100 mg/kg, ip after 0.25 hrs; format: functional
Rattus norvegicus [28] = assay: Anticonvulsant activity in Sprague-Dawley albino rat assessed as protection against maximal electroshock-induced seizures at 30 mg/kg, po after 1 hr; format: functional
Vibrio harveyi [29] = assay: Induction of mutagenecity in Vibrio harveyi BB7XM; format: organism-based; conditions: in vivo
[30] = Neurotoxicity in ip dosed CF-1 albino mouse after 0.5 hrs by rotarod test; format: toxicity, organism-based; conditions: CF-1, mouse, in vivo
Rattus norvegicus [31] = assay: Anticonvulsant activity in Sprague-Dawley albino rat assessed as protection against maximal electroshock-induced seizures at 30 mg/kg, po after 4 hrs; format: functional
Mus musculus [32] = assay: Anticonvulsant activity in ip dosed CF-1 albino mouse assessed as protection against maximal electroshock-induced seizures after 0.5 to 4 hrs; format: functional
[33] = Neurotoxicity in po dosed Sprague-Dawley albino rat at 30 mg/kg, po after 0.25 to 4 hrs by rotarod test; format: toxicity, organism-based; design: dose 30 mg/kg, route oral; conditions: in vivo
Rattus norvegicus [34] = assay: Anticonvulsant activity in po dosed Sprague-Dawley albino rat assessed as protection against maximal electroshock-induced seizures after 0.25 to 4 hrs; format: functional
[35] = target: Sodium channel protein type 2 subunit alpha (Homo sapiens) (UniProt Q99250); assay: Inhibition of NaV1.2 channel (unknown origin) at 1 uM by electrophysiology
[36] = target: Sodium channel protein type 2 subunit alpha (Homo sapiens) (UniProt Q99250); assay: Inhibition of NaV1.2 channel (unknown origin) at 100 uM by electrophysiology
Rattus norvegicus [37] = organism: Rattus norvegicus; assay: Ratio of phenytoin ED50 to compound ED50 for Sprague-Dawley albino rat; format: functional
Mus musculus [38] = assay: Neurotoxicity in CF-1 albino mouse at 300 mg/kg, ip after 0.5 hrs by rotarod test; format: toxicity, organism-based; design: dose 300 mg/kg, route intraperitoneal; conditions: in vivo
[39] = Neurotoxicity in ip dosed CF-1 albino mouse after 4 hrs by rotarod test; format: toxicity, organism-based; conditions: CF-1, mouse, in vivo

| Structure (SMILES) | Activity (Mus musculus [1]) [%] | Activity (Rattus norvegicus [3]) | Ratio TD50/ED50 (Rattus norvegicus [4]) | MED50 (Mus musculus [5]) [mg/kg] | Activity (Rattus norvegicus [6]) | Activity (Mus musculus [8]) | Time (Rattus norvegicus [10]) [h] | Activity (Rattus norvegicus [11]) | inhibition [13] [%] | Activity (Rattus norvegicus [16]) | Activity (Vibrio harveyi [17]) | Activity (Vibrio harveyi [18]) | Time (Mus musculus [21]) [h] | inhibition [22] [%] | TD50 [23] [mg/kg] | Activity (Vibrio harveyi [24]) | Ratio TD50/ED50 (Mus musculus [26]) | Activity (Rattus norvegicus [28]) | Activity (Vibrio harveyi [29]) | Activity (Rattus norvegicus [31]) | other results |
| --- | --- | --- | --- | --- | --- | --- | --- | --- | --- | --- | --- | --- | --- | --- | --- | --- | --- | --- | --- | --- | --- |
| CC1(c2ccccc2)CC(=O)N(CN2CCN(c3cccc(Cl)c3)CC2)C1=O (centres undefined) | 50 | Active | >8.95 | 30 | 25% | inactive | 2 | inactive | 39.6 | Non-toxic | Non-toxic | Non-toxic | 6 | 16.3 | 496 | Non-toxic | 12.08 | 25% | Non-toxic | 50% | inhibition (INH) (Vibrio harveyi [2]): 0%; inhibition (INH) (Vibrio harveyi [7]): 57%; inhibition (INH) (Vibrio harveyi [9]): 25%; Activity (Mus musculus [12]): 50%; inhibition (INH) (Vibrio harveyi [14]): 61%; Activity (Mus musculus [15]): Non-toxic; Activity (Mus musculus [19]; route intraperitoneal): 50%; Activity (Mus musculus [20]; route intraperitoneal): 25%; Activity (Mus musculus [25]; route intraperitoneal): 25%; Activity (Mus musculus [27]): inactive; TD50 at 0.5 h [30]: 300 mg/kg; ED50 (Mus musculus [32]): 41.1 mg/kg; TD50 [33]: > 250 mg/kg; ED50 (Rattus norvegicus [34]): 27.9 mg/kg; inhibition [35]: 7.76%; inhibition [36]: 86.9% |
| CC1(c2ccccc2)CC(=O)N(CN2CCN(c3ccc(F)cc3)CC2)C1=O (centres undefined) | 25 | 75% | 8.43 | 100 | 25% | inactive | 4 | 25% | 26.8 | Non-toxic | Non-toxic | Non-toxic | 8 | 10.6 | > 500 | Non-toxic | 4.16 | 50% | Non-toxic | 75% | inhibition (INH) (Vibrio harveyi [2]): 0%; inhibition (INH) (Vibrio harveyi [7]): 49%; inhibition (INH) (Vibrio harveyi [9]): 8%; inhibition (INH) (Vibrio harveyi [14]): 62%; Activity (Mus musculus [19]): Active; Activity (Mus musculus [20]): Active; Ratio ED50 (Rattus norvegicus [37]): 3.5; Activity (Mus musculus [38]): Non-toxic; Activity (Mus musculus [25]): inactive; Activity (Mus musculus [27]; route intraperitoneal): 50%; TD50 at 4 h [39]: 300 mg/kg; ED50 (Mus musculus [32]): 120 mg/kg; TD50 [33]: 65.6 mg/kg; ED50 (Rattus norvegicus [34]): 7.78 mg/kg; inhibition [35]: 14.9%; inhibition [36]: 64% |
| CC1(c2ccccc2)CC(=O)N(CN2CCN(c3ccc(Cl)c(Cl)c3)CC2)C1=O (centres undefined) | 25 | 50% | 11.09 | 30 | inactive | inactive | 4 | inactive | 58.6 | Non-toxic | Non-toxic | Toxic | 4 | 3.08 | > 500 | Non-toxic | >13.41 | inactive | Toxic | Active | Activity (Mus musculus [12]): 50%; Activity (Mus musculus [15]): Non-toxic; Activity (Mus musculus [19]): inactive; Activity (Mus musculus [20]): inactive; Activity (Mus musculus [25]): inactive; Activity (Mus musculus [27]; route intraperitoneal): 25%; TD50 at 0.5 h [30]: 300 mg/kg; ED50 (Mus musculus [32]): 37.3 mg/kg; TD50 [33]: 168 mg/kg; ED50 (Rattus norvegicus [34]): 15.1 mg/kg; inhibition [35]: 15.1%; inhibition [36]: 96.7% |
